Measurements reported in patent US20220411419A1, “SMALL MOLECULE MODULATORS OF MHC-I” (RetroVirox, Inc., priority 2018, published 2022).

Key:
in vitro = details: human, uninfected SupT1 cells
[1] = tested on: downmodulation of MHC-I molecules expressed on the surface of HIV infected SupT1 cells; experiment: cells; details: for EC50: Human immunodeficiency virus 1, SUP-T1, read-out: EC50 for inhibition of MHC-I downmodulation utilizing the R1 parameter; for activity at 100 µM: Human immunodeficiency virus 1, SUP-T1, read-out: R1 @ 100 μM (R1 value for MHC-I downmodulation as % of the vehicle control)

Row | SMILES | CC50 at 48 h (in vitro) [µM] | EC50 [1] [µM] | CC50 (in vitro) [µM] | activity at 100 µM [1] [%]
1 | CC1(C)Cc2cccc(OCC(=O)Nc3nc4c(F)cccc4s3)c2O1 [Compound 147, 2-((2,2-Dimethyl-2,3-dihydrobenzofuran-7-yl)oxy)-N-(4-fluorobenzo[d]thiazol-2-yl)acetamide] | > 90 | 0.09 |  | 
2 | CC1(C)Cc2cccc(OCC(=O)Nc3nc4cc(F)ccc4s3)c2O1 [Compound 148, 2-((2,2-Dimethyl-2,3-dihydrobenzofuran-7-yl)oxy)-N-(5-fluorobenzo[d]thiazol-2-yl)acetamide] | > 100 | 2 |  | 
3 | CC1(C)Cc2cccc(OCC(=O)Nc3nc4ccc(OC(F)(F)F)cc4s3)c2O1 [Compound 149, 2-((2,2-Dimethyl-2,3-dihydrobenzofuran-7-yl)oxy)-N-(6-(trifluoromethoxy)benzo[d]thiazol-2-yl)acetamide] | > 100 | > 25 | > 100 | 27
4 | CC1(C)Cc2cccc(OCC(=O)Nc3nc(C(=O)N4CCCC4)cs3)c2O1 [Compound 150, 2-((2,2-dimethyl-2,3-dihydrobenzofuran-7-yl)oxy)-N-(4-(pyrrolidine-1-carbonyl)thiazol-2-yl)acetamide] | > 90 | > 25 | > 90 | 47
5 | CC1(C)Cc2cccc(OCC(=O)Nc3nc(C(=O)N4CCCCC4)cs3)c2O1 [Compound 151, 2-((2,2-Dimethyl-2,3-dihydrobenzofuran-7-yl)oxy)-N-(4-(piperidine-1-carbonyl)thiazol-2-yl)acetamide] | > 90 | > 25 | > 90 | 51
6 | CC1(C)Cc2cccc(OCC(=O)Nc3nc(C(=O)N4CC[C@H](CO)C4)cs3)c2O1 [Compound 152, (S)-2-((2,2-Dimethyl-2,3-dihydrobenzofuran-7-yl)oxy)-N-(4-(3-(hydroxymethyl)pyrrolidine-1-carbonyl)thiazol-2-yl)acetamide] | > 90 | > 25 | > 90 | 54
7 | CC1(C)Cc2cccc(OCC(=O)Nc3nc(C(=O)N4CC(CO)C4)cs3)c2O1 [Compound 153, 2-((2,2-Dimethyl-2,3-dihydrobenzofuran-7-yl)oxy)-N-(4-(3-(hydroxymethyl)azetidine-1-carbonyl)thiazol-2-yl)acetamide] | > 90 | > 25 | > 90 | 39
8 | CC1(C)Cc2cccc(OCC(=O)Nc3nc(C(=O)NCc4ccco4)cs3)c2O1 [Compound 154, 2-(2-((2,2-Dimethyl-2,3-dihydrobenzofuran-7-yl)oxy)acetamido)-N-(furan-2-ylmethyl)thiazole-4-carboxamide] | > 100 | > 25 | > 100 | 44
9 | CC(C)(C)OC(=O)N1CCC(CNC(=O)c2csc(NC(=O)COc3cccc4c3OC(C)(C)C4)n2)C1 (centres unmarked) [Compound 155, tert-Butyl 3-((2-(2-((2,2-dimethyl-2,3-dihydrobenzofuran-7-yl)oxy)acetamido)thiazole-4-carboxamido)methyl)pyrrolidine-1-carboxylate] | > 90 | > 25 | > 90 | ≥ 100
10 | CC1(C)Cc2cccc(OCC(=O)Nc3nc(C(=O)NCC4CCNC4)cs3)c2O1 (centres unmarked) [Compound 156, 2-(2-((2,2-dimethyl-2,3-dihydrobenzofuran-7-yl)oxy)acetamido)-N-(pyrrolidin-3-ylmethyl)thiazole-4-carboxamide] | > 90 | > 25 | > 90 | 40
11 | CC(C)(C)OC(=O)N1CCC(CNC(=O)c2cnc(NC(=O)COc3cccc4c3OC(C)(C)C4)s2)C1 (centres unmarked) [Compound 157, tert-Butyl 3-((2-(2-((2,2-dimethyl-2,3-dihydrobenzofuran-7-yl)oxy)acetamido)thiazole-5-carboxamido)methyl)pyrrolidine-1-carboxylate] | > 90 | > 25 | > 90 | ≥ 100
12 | CCc1cccc(NC(=O)COc2cccc3c2OC(C)(C)C3)n1 [Compound 158, 2-((2,2-Dimethyl-2,3-dihydrobenzofuran-7-yl)oxy)-N-(6-ethylpyridin-2-yl) acetamide] | > 125 | 13 |  | 
13 | Cc1csc(N(Cc2ccccc2)C(=O)COc2cccc3c2OC(C)(C)C3)n1 [Compound 159, N-Benzyl-2-((2,2-dimethyl-2,3-dihydrobenzofuran-7-yl)oxy)-N-(4-methylthiazol-2-yl)acetamide] | > 90 | 0.18 |  | 
14 | CN(C(=O)COc1ccccc1C(F)(F)F)c1nc2c(s1)CCCC2 [Compound 160, N-Methyl-N-(4,5,6,7-tetrahydrobenzo[d]thiazol-2-yl)-2-(2-(trifluoromethyl)phenoxy)acetamide] | > 125 | 0.28 |  | 
15 | CN(C(=O)COc1ccccc1OC(F)(F)F)c1nc2c(s1)CCCC2 [Compound 161, N-Methyl-N-(4,5,6,7-tetrahydrobenzo[d]thiazol-2-yl)-2-(2-(trifluoromethoxy)phenoxy)acetamide] | > 125 | 0.15 |  | 
16 | CN(C(=O)COc1cccc2c1OC(C)(C)C2)c1nc2c(s1)CCC2 [Compound 162, N-(5,6-Dihydro-4H-cyclopenta[d]thiazol-2-yl)-2-((2,2-dimethyl-2,3-dihydrobenzofuran-7-yl)oxy)-N-methylacetamide] | 124 | 0.027 |  | 

Row | SMILES | CC50 at 48 h (in vitro) [µM] | EC50 [1] [µM] | CC50 (in vitro) [µM] | activity at 100 µM [1] [%]
17 | CC1(C)Cc2cccc(OCC(=O)Nc3ccc4c(n3)CCC4)c2O1 [Compound 163, N-(6,7-dihydro-5H-cyclopenta[b]pyridin-2-yl)-2-((2,2-dimethyl-2,3-dihydrobenzofuran-7-yl)oxy)acetamide] | > 125 | 0.37 |  | 
18 | CC1(C)Cc2cccc(OCC(=O)Nc3nc4c(s3)COCC4)c2O1 [Compound 175, N-(6,7-Dihydro-4H-pyrano[4,3-d]thiazol-2-yl)-2-((2,2-dimethyl-2,3-dihydrobenzofuran-7-yl)oxy)acetamide] | 10 | 1.2 |  | 
19 | O=C(COc1cccc2c1OCCO2)Nc1nc2ccccc2s1 [Compound 176, N-(Benzo[d]thiazol-2-yl)-2-((2,3-dihydrobenzo[b][1,4]dioxin-5-yl)oxy) acetamide] | > 100 | 8.9 |  | 
20 | Cc1ccc(NC(=O)COc2cccc3c2OC(C)(C)C3)nc1 [Compound 177, 2-((2,2-Dimethyl-2,3-dihydrobenzofuran-7-yl)oxy)-N-(5-methylpyridin-2-yl) acetamide] | > 100 | 0.24 |  | 
21 | CC1(C)Cc2cccc(OCC(=O)Nc3cccc4cccnc34)c2O1 [Compound 178, 2-((2,2-Dimethyl-2,3-dihydrobenzofuran-7-yl)oxy)-N-(quinolin-8-yl) acetamide] | > 25 | > 25 | > 25 | 20
22 | Cc1ccnc(NC(=O)COc2cccc3c2OC(C)(C)C3)n1 [Compound 179, 2-((2,2-Dimethyl-2,3-dihydrobenzofuran-7-yl)oxy)-N-(4-methylpyrimidin-2-yl)acetamide] | > 100 | > 25 |  | 
23 | Cc1csc(N(C(=O)COc2cccc3c2OC(C)(C)C3)c2ccccc2)n1 [Compound 180, 2-((2,2-Dimethyl-2,3-dihydrobenzofuran-7-yl)oxy)-N-(4-methylthiazol-2-yl)-N-phenylacetamide] | > 100 | 0.028 |  | 
24 | Cc1csc(NC(=O)COc2cccc3c2OC(C)(C)C3)n1 [Compound 181, 2-((2,2-Dimethyl-2,3-dihydrobenzofuran-7-yl)oxy)-N-(4-methylthiazol-2-yl) acetamide] | > 90 | 0.62 |  | 
25 | Cc1cnc(NC(=O)COc2cccc3c2OC(C)(C)C3)s1 [Compound 182, 2-((2,2-Dimethyl-2,3-dihydrobenzofuran-7-yl)oxy)-N-(5-methylthiazol-2-yl) acetamide] | 69 | 0.37 |  | 
26 | CC1(C)Cc2cccc(OCC(=O)Nc3nc4ccc(F)cc4s3)c2O1 [Compound 183, 2-((2,2-Dimethyl-2,3-dihydrobenzofuran-7-yl)oxy)-N-(6-fluorobenzo[d]thiazol-2-yl)acetamide] | > 100 | 4.2 |  | 
27 | Cc1cccc2sc(NC(=O)COc3cccc4c3OC(C)(C)C4)nc12 [Compound 184, 2-((2,2-Dimethyl-2,3-dihydrobenzofuran-7-yl)oxy)-N-(4-methylbenzo[d]thiazol-2-yl)acetamide] | > 90 | 3.3 |  | 
28 | Cc1nc(NC(=O)COc2cccc3c2OC(C)(C)C3)sc1C [Compound 185, 2-((2,2-Dimethyl-2,3-dihydrobenzofuran-7-yl)oxy)-N-(4,5-dimethylthiazol-2-yl)acetamide] | > 90 | 0.2 |  | 
29 | COc1ccccc1OCC(=O)Nc1nc(C)c(C)s1 [Compound 186, N-(4,5-Dimethylthiazol-2-yl)-2-(2-methoxyphenoxy)acetamide] | > 100 | ≥ 25 | > 100 | 18
30 | COc1ccccc1OCC(=O)Nc1nc2ccccc2s1 [Compound 187, N-(Benzo[d]thiazol-2-yl)-2-(2-methoxyphenoxy)acetamide] | > 100 | ≥ 25 | > 100 | 45
31 | COc1ccccc1OCC(=O)Nc1nc2c(Cl)cccc2s1 [Compound 188, N-(4-Chlorobenzo[d]thiazol-2-yl)-2-(2-methoxyphenoxy)acetamide] | > 100 | ≥ 10 | > 100 | 37
32 | COc1ccccc1OCC(=O)Nc1nc2c(C)cccc2s1 [Compound 189, 2-(2-Methoxyphenoxy)-N-(4-methylbenzo[d]thiazol-2-yl)acetamide] | > 100 | > 25 | > 100 | 39
